Data reported in patent US20230358677A1, “Reversible Excited-State Photoacids and Photobases as Dynamic Fluorescence Sensors of Protonic Species” (California Institute of Technology, priority 2022, published 2023).

What was measured:
[1] = Stern-Volmer analysis of quenching of HPhenDS by proton acceptors; type: physicochemical; conditions: quenching of aqueous HPhenDS, constant ionic strength
Protocol: ESPT availability and ESPT to water curves are calculated from steady-state absorption and photoluminescence data for 15 μM HPhenDS across the pH window indicated at constant ionic strength (except for pH values below 0). Concentrations of all buffers were simulated to be 1 M total salt added. Ability to sense is predicted by estimating total concentration at a given pH value based on the pKa value of the buffer and fit to a Henderson-Hasselbalch-type equation. The resultant concentration is then multiplied by the ESPT availability of HPhenDS at each pH value.
FIGS. 21A and 21B illustrate Stern-Volmer analysis for quenching constant Ksv in accordance with an embodiment.

[2] = proton acceptor, aqueous; cited from earlier work
[3] = Acid-base titrations of NS—NH2 in the presence of proton-accepting quenchers (modified Stern-Volmer, Equation 7); conditions: for k+q,corr: corrected rate constant, ESPT from NS—NH2* to the proton acceptor; for k+q: direct excited-state proton transfer from NS—NH2* to the proton acceptor; for KSV,quencher (Equation 7) / KSV,quencher (traditional linearized Stern-Volmer): quenching of NS—NH2*; for pKa,BH+ (Equation 7), value after the slash: equals titration-curve values of b153
Text: Assuming that photoluminescence quenching occurs by ESPT from NS—NH2* to OH^−(aq), the data support that when aOH− is small (i.e. at pH less than about 12), ESPT can be quite slow compared to the excited-state lifetime of NS—NH2*, due to mass action (FIG. 2B). The non-unity quantum yield for ESPT in weakly alkaline aqueous solutions afforded us an opportunity to evaluate a series of aqueous proton-accepting quenchers (glycine (Gly(aq)), proline (Pro(aq)), and trifluoroethanol (TFE(aq))) for their ability to undergo ESPT with NS—NH2*. In order to clearly observe ESPT to a species other than OH^−(aq), added proton-accepting quenchers had to be more basic (ΔG^o<0), or slightly more acidic (ΔG^o>0), than NS—NH2*, and less basic than OH^−(aq). […] As pH values approach and pass the pKa of the proton-accepting quencher, the rate of ESPT slows from a decrease in the concentration of proton-accepting quencher due to its protonation. This is supported by observations from analogous experiments performed using different concentrations of quencher. Best fits of measured photoluminescence spectroscopy data to a modified Stern-Volmer equation for a two-quencher system, including both OH^−(aq) and proton-accepting quencher, provided bimolecular rate constants for deprotonation of the photoacid by each quencher,
where KSV,OH−=K*^−1b and KSV,quencher=k+q,quencherτo,PAH* are the dynamic quenching constants for excited-state proton transfer to OH^−(aq) and proton-accepting quencher, respectively, k+q,quencher is the bimolecular rate constant (M^−1 s^−1) for ESPT quenching by the proton-accepting quencher, and the sum of the activities of B and BH^+ is approximated as the total concentration of the proton-accepting quencher. While the pKa of the proton-accepting quencher is an adjustable parameter during best fitting, extracted pKa values are close to pKa values obtained from the acid-base titration curves of the proton-accepting quenchers. Changing the proton-accepting quencher to one with a smaller pKa value results in a slower non-diffusion-limited rate constant for ESPT with NS—NH2*. The observation of ESPT directly from NS—NH2* to each of two different amino acids, Gly and Pro, is notable, and may have important implications for biological systems where direct protonation of proteins can induce cellular responses.
Table 2 lists driving-force-dependent rate constants for direct excited-state proton transfer from NS—NH2* to various proton-accepting quenchers.
Several embodiments use the steady-state ultraviolet-visible electronic absorption and photoluminescence spectroscopy for characterization. Equal amounts of aromatic amine photoacids are portioned into five separate 100 mL volumetric flasks. For the non-proton-accepting quencher experiments, the five flasks are filled to the volumetric marker with aqueous solutions of 1 M HCl, 1 M KOH, 2 M KOH, 3 M KOH, and 4 M KOH. The aqueous 1 M KOH solution is titrated with the aqueous 1 M HCl solution to reach the desired pH values from 14 to 6, and the H^+ activities are measured using a pH meter (pH/Ion 510). […] Electronic absorption spectra and photoluminescence spectra are acquired using absorbance and fluorescence spectrometer(s), using a square-bottom quartz cuvette (1 cm path length) at room temperature. Electronic absorption spectra are baselined on a spectrum of deionized water and were corrected for scattering of light. Photoluminescence spectra are recorded by exciting with 310 nm light, slit widths for the excitation and emission monochromators were set to 5 nm, and the PMT detector voltage is set to 600 V. Photoluminescence spectra are corrected for changes in solution refractive index, inner filter effects and the wavelength-dependent correction factor of the fluorimeter.

[4] = 1 M aqueous solution titrated with 4 M KOH
[5] = cited from earlier work
[6] = conjugate acid of proton acceptor

Row | Compound | KSV [1] | Diffusion Coefficient [2] | pKa,BH+ (Equation 7), value before the slash [3, 6] | k+q,corr [3] | k+q [3] | other results
1 | O=C([O-])[O-].[Na+].[Na+] [Carbonate] | about 1.02 M^−1 | – | – | – | – | –
2 | O=C(O)O [Bicarbonate] | about 0.6051 M^−1 | – | – | – | – | –
3 | Hydroxide | – | 52.70 10^−6 cm^2/s | 14/— | 100 ± 3 10^8 M^−1 s^−1 | 100 ± 3 10^8 M^−1 s^−1 | –
4 | Phosphate | – | 8.79 10^−6 cm^2/s | – | 22.6 ± 3.8 10^8 M^−1 s^−1 | 5.4 ± 0.9 10^8 M^−1 s^−1 | pKa,BH+ (Equation 7), value before the slash [3]: 11.4/—; bimolecular rate constant, deprotonation of NS—NH2* by the quencher ([3]; 0.17 M total phosphate): (11±2)×10^8 M^−1 s^−1; KSV,quencher (Equation 7) ([3]; 0.17 M total phosphate): 2.2 ± 0.3 M⁻¹; KSV,quencher (traditional linearized Stern-Volmer) ([3]; 0.17 M total phosphate): 3.4 ± 0.1 M⁻¹
5 | O=CO [Formate] | about 0.4623 M^−1 | – | – | – | – | –
6 | CC(=O)O [Acetate] | about 0.1548 M^−1 | – | – | – | – | –
7 | NCC(=O)O [Glycine] | – | 10.60 10^−6 cm^2/s | 9.7 | 1.44 ± 0.07 10^8 M^−1 s^−1 | 0.39 ± 0.02 10^8 M^−1 s^−1 | pKa from acid-base titration curve [4]: 9.9; bimolecular rate constant, deprotonation of NS—NH2* by the quencher ([3]; 1 M total quencher): (0.39±0.02)×10^8 M^−1 s^−1; bimolecular rate constant, deprotonation of NS—NH2* by the quencher ([3]; 2 M total glycine): (0.90±0.04)×10^8 M^−1 s^−1; pKa,BH+ (Equation 7), value after the slash [3, 6]: 9.9; KSV,quencher (Equation 7) ([3]; 1 M total quencher): 0.18 ± 0.01 M⁻¹; KSV,quencher (traditional linearized Stern-Volmer) ([3]; 1 M total quencher): 0.19 ± 0.01 M⁻¹; KSV,quencher (Equation 7) ([3]; 2 M total glycine): 0.20 ± 0.01 M⁻¹
8 | Trifluoroethanol | – | 6.00 10^−6 cm^2/s | 12.4 | 58.7 ± 11.5 10^8 M^−1 s^−1 | 11.2 ± 2.2 10^8 M^−1 s^−1 | pKa, literature value [5]: 12.4; pKa from acid-base titration curve [4]: 12.6; bimolecular rate constant, deprotonation of NS—NH2* by the quencher ([3]; 1 M total quencher): (11±2)×10^8 M^−1 s^−1; pKa,BH+ (Equation 7), value after the slash [3, 6]: 12.6; KSV,quencher (Equation 7) ([3]; 1 M total quencher): 5 ± 1 M⁻¹; KSV,quencher (traditional linearized Stern-Volmer) ([3]; 1 M total quencher): 6.2 ± 0.1 M⁻¹
